Results taken from patent US20260355274A1 (Onkure, Inc., priority 2022, published 2026).

How the values were obtained:
Assay type in all cases: biochemical
HDAC 1 = HDAC 1 (Homo sapiens, UniProt Q13547); experiment: enzymatic inhibition of HDAC 1; settings: HDAC 1, Class I
Text: (§1) The mammalian HDACs can be divided into four classes depending on their sequence homology, sub-cellular distribution and catalytic activity. Class I, Il and IV HDACs have a Zn^2+ cofactor in the catalytic site. Class III HDACs contain sirtuins 1-7 and are NAD^+-dependent. Class I (HDACs 1, 2, 3 and 8) share the same homology as Rpd3 and are preliminarily distributed in the nucleus of normal cells. Class II HDACs can be subdivided into class IIa HDACs and class Ilb HDACs. Class IIa enzymes (HDAC 4, 5, 7 and 9) shuttle between the nucleus and cytoplasm and are located in specific tissues such as the brain, heart, and muscle. Class IIb (HDACs 6 and 10) are chiefly located in the cytoplasm.

HDAC 4 = HDAC 4 (Homo sapiens, UniProt P56524); experiment: enzymatic inhibition of HDAC 4; settings: HDAC 4, Class IIa; read-out: IC50
HDAC 4, sequence (P56524 whole entry): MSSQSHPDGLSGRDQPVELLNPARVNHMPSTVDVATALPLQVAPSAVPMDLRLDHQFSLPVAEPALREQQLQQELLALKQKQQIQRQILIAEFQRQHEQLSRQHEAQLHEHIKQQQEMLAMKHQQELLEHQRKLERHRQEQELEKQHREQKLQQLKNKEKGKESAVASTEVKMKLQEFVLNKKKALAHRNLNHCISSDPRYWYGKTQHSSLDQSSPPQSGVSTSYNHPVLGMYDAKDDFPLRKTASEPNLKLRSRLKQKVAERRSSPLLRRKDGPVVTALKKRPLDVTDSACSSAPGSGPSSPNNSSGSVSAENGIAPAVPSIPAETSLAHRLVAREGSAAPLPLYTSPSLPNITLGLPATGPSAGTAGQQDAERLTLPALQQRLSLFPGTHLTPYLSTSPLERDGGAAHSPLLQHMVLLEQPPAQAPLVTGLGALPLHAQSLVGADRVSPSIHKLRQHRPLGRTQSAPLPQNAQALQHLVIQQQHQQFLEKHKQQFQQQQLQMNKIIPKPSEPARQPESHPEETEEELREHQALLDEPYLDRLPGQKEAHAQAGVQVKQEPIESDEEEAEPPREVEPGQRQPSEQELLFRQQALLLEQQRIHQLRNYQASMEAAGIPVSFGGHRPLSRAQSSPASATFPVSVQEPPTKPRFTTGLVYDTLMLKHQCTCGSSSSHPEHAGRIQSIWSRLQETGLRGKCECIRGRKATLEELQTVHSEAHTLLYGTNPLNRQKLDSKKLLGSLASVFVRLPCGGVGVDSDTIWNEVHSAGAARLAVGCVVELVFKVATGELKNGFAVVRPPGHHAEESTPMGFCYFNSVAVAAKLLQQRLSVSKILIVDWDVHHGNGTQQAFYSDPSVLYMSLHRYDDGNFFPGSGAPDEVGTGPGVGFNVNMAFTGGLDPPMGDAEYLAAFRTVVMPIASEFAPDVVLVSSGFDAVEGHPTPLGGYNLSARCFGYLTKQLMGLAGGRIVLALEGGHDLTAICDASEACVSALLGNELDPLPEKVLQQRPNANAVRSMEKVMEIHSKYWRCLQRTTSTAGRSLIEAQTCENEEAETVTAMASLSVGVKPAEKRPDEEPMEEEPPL
Text: as §1

HDAC 2 = HDAC 2 (Homo sapiens, UniProt Q92769); experiment: enzymatic inhibition of HDAC 2; settings: HDAC 2, Class I
HDAC 2, sequence (Q92769 whole entry): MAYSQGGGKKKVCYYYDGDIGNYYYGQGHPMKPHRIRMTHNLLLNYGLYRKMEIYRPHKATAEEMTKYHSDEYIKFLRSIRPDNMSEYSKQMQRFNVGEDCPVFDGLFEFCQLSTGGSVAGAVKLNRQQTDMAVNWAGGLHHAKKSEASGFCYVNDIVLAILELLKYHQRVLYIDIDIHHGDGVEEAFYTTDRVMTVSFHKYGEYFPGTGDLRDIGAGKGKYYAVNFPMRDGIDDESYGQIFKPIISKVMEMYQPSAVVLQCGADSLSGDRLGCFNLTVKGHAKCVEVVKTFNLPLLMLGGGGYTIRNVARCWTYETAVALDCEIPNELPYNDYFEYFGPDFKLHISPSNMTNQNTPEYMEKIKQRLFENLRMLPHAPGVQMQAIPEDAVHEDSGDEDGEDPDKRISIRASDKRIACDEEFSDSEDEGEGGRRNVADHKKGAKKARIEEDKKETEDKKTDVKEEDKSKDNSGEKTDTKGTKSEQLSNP
Text: as §1

HDAC 3 = HDAC 3 (Homo sapiens, UniProt O15379); experiment: enzymatic inhibition of HDAC 3; settings: HDAC 3, Class I
Text: as §1

HDAC 6 = HDAC 6 (Homo sapiens, UniProt Q9UBN7); experiment: enzymatic inhibition of HDAC 6; settings: HDAC 6, Class IIb; read-out: IC50
Text: as §1

HDAC 7 = HDAC 7 (Homo sapiens, UniProt Q8WUI4); experiment: enzymatic inhibition of HDAC 7; settings: HDAC 7, Class IIa; read-out: IC50
HDAC 7, sequence (Q8WUI4 whole entry): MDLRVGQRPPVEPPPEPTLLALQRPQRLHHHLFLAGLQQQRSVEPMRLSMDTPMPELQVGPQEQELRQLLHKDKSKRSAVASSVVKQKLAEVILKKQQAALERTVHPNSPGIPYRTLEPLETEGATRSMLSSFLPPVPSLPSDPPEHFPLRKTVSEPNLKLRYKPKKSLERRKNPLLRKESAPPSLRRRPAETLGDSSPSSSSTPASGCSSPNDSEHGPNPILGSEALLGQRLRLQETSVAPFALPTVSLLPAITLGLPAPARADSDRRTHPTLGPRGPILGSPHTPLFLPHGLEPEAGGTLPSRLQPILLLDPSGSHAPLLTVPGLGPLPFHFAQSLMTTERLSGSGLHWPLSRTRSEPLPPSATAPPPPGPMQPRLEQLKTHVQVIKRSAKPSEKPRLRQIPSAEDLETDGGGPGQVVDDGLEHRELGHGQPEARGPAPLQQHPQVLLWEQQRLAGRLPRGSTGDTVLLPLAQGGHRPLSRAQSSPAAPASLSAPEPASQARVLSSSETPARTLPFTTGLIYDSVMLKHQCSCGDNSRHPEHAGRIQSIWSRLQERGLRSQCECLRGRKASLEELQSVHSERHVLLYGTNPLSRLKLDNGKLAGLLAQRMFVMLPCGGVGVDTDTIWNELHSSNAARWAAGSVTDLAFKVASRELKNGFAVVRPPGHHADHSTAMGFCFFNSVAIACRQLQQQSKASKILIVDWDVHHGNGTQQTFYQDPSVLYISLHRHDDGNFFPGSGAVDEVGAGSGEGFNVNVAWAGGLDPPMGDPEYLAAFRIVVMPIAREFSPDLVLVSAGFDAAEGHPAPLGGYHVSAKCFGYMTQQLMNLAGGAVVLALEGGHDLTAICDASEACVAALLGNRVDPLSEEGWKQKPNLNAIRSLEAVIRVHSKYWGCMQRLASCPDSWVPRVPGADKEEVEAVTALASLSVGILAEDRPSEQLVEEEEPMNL
Text: as §1

HDAC 9 = HDAC 9 (Homo sapiens, UniProt Q9UKV0); experiment: enzymatic inhibition of HDAC 9; settings: HDAC 9, Class IIa; read-out: IC50
HDAC 9, sequence (Q9UKV0 whole entry): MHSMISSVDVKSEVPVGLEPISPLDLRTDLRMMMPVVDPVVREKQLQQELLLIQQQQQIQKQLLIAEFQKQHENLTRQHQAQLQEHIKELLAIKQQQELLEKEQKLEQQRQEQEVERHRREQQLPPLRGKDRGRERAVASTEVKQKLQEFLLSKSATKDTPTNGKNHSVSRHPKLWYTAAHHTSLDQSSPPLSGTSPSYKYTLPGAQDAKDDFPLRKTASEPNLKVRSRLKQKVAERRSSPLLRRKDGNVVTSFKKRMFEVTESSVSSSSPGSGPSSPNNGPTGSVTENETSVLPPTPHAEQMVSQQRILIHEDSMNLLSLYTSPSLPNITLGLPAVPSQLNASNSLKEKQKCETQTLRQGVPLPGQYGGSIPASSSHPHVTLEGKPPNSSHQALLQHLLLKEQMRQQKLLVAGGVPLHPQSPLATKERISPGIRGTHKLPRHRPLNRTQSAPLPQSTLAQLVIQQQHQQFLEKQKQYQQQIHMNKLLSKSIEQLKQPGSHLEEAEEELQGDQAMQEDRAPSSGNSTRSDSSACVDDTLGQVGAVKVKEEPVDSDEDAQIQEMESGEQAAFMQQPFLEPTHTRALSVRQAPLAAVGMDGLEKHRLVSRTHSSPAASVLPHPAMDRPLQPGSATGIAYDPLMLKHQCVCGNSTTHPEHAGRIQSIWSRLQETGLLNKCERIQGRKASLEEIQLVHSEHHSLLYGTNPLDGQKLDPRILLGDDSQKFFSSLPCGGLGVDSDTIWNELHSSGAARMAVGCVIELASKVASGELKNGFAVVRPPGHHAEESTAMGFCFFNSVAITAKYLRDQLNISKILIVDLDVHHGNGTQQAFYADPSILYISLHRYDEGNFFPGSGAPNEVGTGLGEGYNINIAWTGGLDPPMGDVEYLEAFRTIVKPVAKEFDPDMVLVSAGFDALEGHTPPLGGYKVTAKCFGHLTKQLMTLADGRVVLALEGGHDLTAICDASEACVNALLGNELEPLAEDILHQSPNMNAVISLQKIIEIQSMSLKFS
Text: as §1

HDAC 11 = HDAC 11 (Homo sapiens, UniProt Q96DB2); experiment: enzymatic inhibition of HDAC 11; settings: HDAC 11, Class IV
HDAC 11, sequence (Q96DB2 whole entry): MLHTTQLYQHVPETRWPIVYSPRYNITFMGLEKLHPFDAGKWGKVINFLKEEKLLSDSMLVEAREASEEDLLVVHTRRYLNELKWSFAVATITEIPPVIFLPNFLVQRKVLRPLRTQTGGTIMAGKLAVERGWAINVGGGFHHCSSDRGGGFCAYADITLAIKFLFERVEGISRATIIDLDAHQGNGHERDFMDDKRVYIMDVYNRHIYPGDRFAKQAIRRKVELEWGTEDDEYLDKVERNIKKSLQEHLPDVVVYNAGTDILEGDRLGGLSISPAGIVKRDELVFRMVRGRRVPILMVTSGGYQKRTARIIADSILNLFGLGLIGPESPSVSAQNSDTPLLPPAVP
Text: as §1

HDAC 10 = HDAC 10 (Homo sapiens, UniProt Q969S8); experiment: enzymatic inhibition of HDAC 10; settings: HDAC 10, Class IIb
HDAC 10, sequence (Q969S8 whole entry): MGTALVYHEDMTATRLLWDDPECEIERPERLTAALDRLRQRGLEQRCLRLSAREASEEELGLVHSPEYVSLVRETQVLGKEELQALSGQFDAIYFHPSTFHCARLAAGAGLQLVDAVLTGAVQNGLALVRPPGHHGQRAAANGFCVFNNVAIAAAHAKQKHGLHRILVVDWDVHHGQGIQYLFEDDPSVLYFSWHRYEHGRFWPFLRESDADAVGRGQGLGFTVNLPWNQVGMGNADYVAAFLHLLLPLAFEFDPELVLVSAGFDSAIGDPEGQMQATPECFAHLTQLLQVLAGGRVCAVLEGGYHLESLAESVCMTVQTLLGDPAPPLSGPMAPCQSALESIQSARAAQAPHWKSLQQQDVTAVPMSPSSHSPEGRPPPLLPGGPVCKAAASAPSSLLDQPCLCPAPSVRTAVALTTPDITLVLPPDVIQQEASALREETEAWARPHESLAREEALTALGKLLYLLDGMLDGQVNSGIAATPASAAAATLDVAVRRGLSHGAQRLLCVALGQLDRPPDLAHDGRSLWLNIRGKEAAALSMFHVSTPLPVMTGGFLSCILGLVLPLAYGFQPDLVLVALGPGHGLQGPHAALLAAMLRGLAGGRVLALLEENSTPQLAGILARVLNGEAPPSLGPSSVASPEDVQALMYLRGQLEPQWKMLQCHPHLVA
Text: as §1

Class I HDAC = experiment: enzymatic inhibition of Class I HDACs (summary); settings: in words
Text: as §1

HDAC 5 = HDAC 5 (Homo sapiens, UniProt Q9UQL6); experiment: enzymatic inhibition of HDAC 5; settings: HDAC 5, Class IIa; read-out: IC50
Text: as §1

HDAC 8 = HDAC 8 (Homo sapiens, UniProt Q9BY41); experiment: enzymatic inhibition of HDAC 8; settings: HDAC 8, Class I; read-out: IC50
HDAC 8, sequence (Q9BY41 whole entry): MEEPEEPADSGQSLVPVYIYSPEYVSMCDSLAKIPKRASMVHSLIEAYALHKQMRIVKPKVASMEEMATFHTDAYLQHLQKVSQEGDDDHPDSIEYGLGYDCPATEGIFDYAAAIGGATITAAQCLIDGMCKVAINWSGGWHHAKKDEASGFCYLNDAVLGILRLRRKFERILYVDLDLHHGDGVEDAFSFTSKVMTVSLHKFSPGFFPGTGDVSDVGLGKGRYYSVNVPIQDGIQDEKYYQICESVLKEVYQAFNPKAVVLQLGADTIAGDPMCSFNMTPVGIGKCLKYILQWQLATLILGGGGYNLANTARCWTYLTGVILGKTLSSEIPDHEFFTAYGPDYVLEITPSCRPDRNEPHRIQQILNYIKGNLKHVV
Text: as §1

Structure (SMILES): CC(C)[C@@H]1NC(=O)C(C)(C)NC(=O)c2csc(n2)CNC(=O)C[C@@H](/C=C/CCS)OC1=O [OKI-006]
- IC50 (HDAC 1): 1.2 nM
- IC50 (HDAC 4): > 1000 nM
- IC50 (HDAC 2): 2.4 nM
- IC50 (HDAC 3): 2 nM
- IC50 (HDAC 6): 47 nM
- IC50 (HDAC 7): > 1000 nM
- IC50 (HDAC 9): > 1000 nM
- IC50 (HDAC 11): 2.3 nM
- IC50 (HDAC 10): 2.8 nM
- potency / selectivity for Class I HDAC (Class I HDAC): high potency for Class I HDAC inhibitors
- IC50 (HDAC 5): > 1000 nM
- IC50 (HDAC 8): 49 nM
